For test [1], the system named is fibronectin and α-SMA. The test can be described thus: Western blotting of fibrosis-related proteins in TGF-β1-induced DHLF-IPF cells. Format: cell-based, human. As to conditions: TGF-β1 1 ng/ml, 10 μM, FIG. 4b. On the procedure:
Specifically, to extract fibronectin and α-SMA proteins, the cells were washed once with cold PBS and then RIPA buffer (150 mM NaCl, 0.5% Triton X-100, 50 mM Tris-HCl, pH 7.4, 25 mM NaF, 20 mM EGTA), which was added with a protease inhibitor cocktail, was added thereto to lyse the cells. Then, the proteins were quantified using a BCA protein assay kit. All protein samples were subjected to electrophoresis at 10 μg on 8% to 10% PAGE gels and then transferred to 0.2 μm PVDF membranes (EMD Millipore, MA, USA). The membranes to which the protein was transferred were blocked with 5% BSA or 5% skim milk for 1 hour, and then primary antibodies were added thereto and incubated overnight at 4° C. The following day, the membranes were washed three times with PBST, and then HRP-conjugated secondary antibodies were added and reacted at room temperature for 1 hour. The PVDF membranes prepared through such procedures were smeared with ECL (Luminata™ Crescendo, EMD Millipore) and exposed to a fluorescence reader to confirm the level of protein expression.
To compare the changes in fibrosis-related protein expression by treating normal MRC-5 and diseased DHLF-IPF cell lines induced with pulmonary fibrosis by TGF-β1 with SFN and the two candidate compounds, Western blotting was performed.
The specific experimental methods are the same as in Example 2. TGF-β1 was treated at 1 ng/ml to induce fibrosis, and sulforaphane and the two compounds each were treated at a concentration of 10 μM.
Background: Immunoblotting shows a protein as a band on a membrane.

Test [2] concerns DHLF-IPF cells. The test can be described thus: Microscopic examination of cell morphology and proliferation, TGF-β1-induced DHLF-IPF. The class given is cell-based, human. The following applies: microscope, FIG. 4a. On the procedure: The effects of the two candidate compounds of sulforaphane prodrugs on cytotoxicity and morphological changes in normal lung fibroblast MRC-5 cells and diseased lung fibroblast DHLF-IPF cells were examined. The diseased lung fibroblast DHLF-IPF cell line was purchased from Lonza and cultured in FGM™-2 Fibroblast Growth Medium-2 BulletKit™ at 37° C. in a 5% CO2 incubator.
Additionally, the changes in cell morphology of two lung fibroblasts induced by TGF-β1 according to the treatments with Compound 1 and Compound 2 were examined with the naked eye through a microscope.

The subject of test [3] is MRC-5 cells. The test can be described thus: Wound healing assay, MRC-5. As to conditions: MRC-5, TGF-β1 treatment, 24 hours, FIG. 6. The class given is cell-based, human. On the procedure:
(§1) The effects of Compound 1 and Compound 2, selected in Example 3, on cell migration (wound healing) in MRC-5 and DHLF-IPF cells were examined.
(§2) Specifically, cells (1×10^5 cells/well) were seeded in a 60 mm dish to achieve approximately 90% confluency and cultured for 24 hours. Subsequently, a straight line was scratched on the bottom with a 200 μL pipette tip, and the detached cells were removed by washing once with Dulbecco's Phosphate-Buffered Saline (DPBS). The wound was photographed under a microscope, and treatments with TGF-β1 alone, TGF-β1+SFN, TGF-β1+GSF-016, and TGF-1+GSF-018 were applied and cultured for approximately 24 hours, after which the wound was re-photographed. The images taken at 24 hours of culture were analyzed using the Image J (Fiji package) software to measure the distance between cells, and the relative migration was expressed as a percentage (%) compared to the control group.

For test [4], the system named is DHLF-IPF cells. Put plainly: Wound healing assay, DHLF-IPF. Format: cell-based, human. The following applies: TGF-β1 treatment, 24 hours, FIG. 6. The method, then: as §1, §2
The subject of test [5] is bleomycin (BLM)-induced pulmonary fibrosis animal models. The test can be described thus: H&E and Masson-trichrome histological evaluation of lung, BLM model. Format: in vivo, C57BL/6N mice. The following applies: BLM mice; for degree of fibrosis in the lung tissue: compared to the BLM group; for inflammation in lung tissue (H&E): both doses (Compound 1 200 and 500 μg/kg; Compound 2 100 and 200 μg/kg). On the procedure: (§3) Specifically, 7-week-old C57BL/6N mice were exposed to BLM (3-5 units/kg) via the airway. The compounds were administered orally at doses of 200 μg/kg and 500 μg/kg for Compound 1, and 100 μg/kg and 200 μg/kg for Compound 2, three times a week for three weeks starting the day after BLM exposure. Body weight gain was periodically measured during the experimental period, and lung weight was measured at the end of the experiment.
To observe changes in lung tissue, Hematoxylin and Eosin (H&E) staining and Masson-trichrome staining were performed on lung tissue samples to assess the degree of inflammation and fibrosis.
Specifically, the excised lung tissue was embedded in paraffin and sectioned into 4 μm slices using a microtome. These tissue sections were used for H&E, MT stain, and Immunohistochemistry (IHC). Each experiment was conducted by deparaffinizing and rehydrating the sections using xylene and ethanol. For IHC, the LSAB2 system HRP (DAKO, Carpinteria, CA, USA) kit was used. Antibody retrieval was performed in 0.1 mM citric acid (pH 6), and the experiment was conducted according to the provided instructions. The sections were blocked with blocking buffer at room temperature for 1 hour, then incubated overnight at 4° C. with primary antibodies (fibronectin, collagen 1, α-SMA). After blocking with secondary antibodies at room temperature for 1 hour, the Streptavidin-HRP system was used for 10 minutes, followed by exposure to DAB solution, hematoxylin staining, dehydration, clearing, and mounting with Canada balsam. The stained slides were examined under an optical microscope (BK51, Olympus, Japan). The staining results were quantified using the Image J program.

In test [6] the test system is FN, COL1A1, α-SMA, TGF-β, and CTGF. The test can be described thus: qRT-PCR of fibrosis-related genes in lung tissue, BLM model. The class given is in vivo, C57BL/6N mice. As to conditions: BLM mice, compared to the BLM group. On the procedure: as §3
Specifically, to extract RNA from lung tissue, approximately 100 mg of pulverized lung tissue was dispensed into 1.5 mL tubes, and total RNA was extracted using TRIzol reagent (TakaRa Bio Inc., Japan). After adding 1 mL of TRIzol reagent to denature the tissue, the samples were transferred to 1.5 ml tubes, and 200 μl of chloroform was added, followed by vortexing for 20 seconds to mix thoroughly. After reacting at room temperature for 15 minutes, the samples were centrifuged at 14,000 rpm for 20 minutes to obtain the supernatant. An equal volume of isopropyl alcohol was added, inverted, and allowed to stand at room temperature for 10 minutes. The samples were centrifuged at 14,000 rpm for 15 minutes to obtain RNA pellets, washed with 70% ethanol at 14,000 rpm for 5 minutes, and dried for 5 minutes. […] The RNA concentration and purity were measured at OD 260/280 nm using a Nanodrop.

With `CCOC(=O)C(CSC(=S)NCCCC[S+](C)[O-])NC(C)=O` (stereo not drawn) [Compound 1], the “expression levels of fibronectin and α-SMA protein” value in test [1] is recorded as “significantly reducing the expression levels compared to sulforaphane”. In test [2], the cell morphology result was “thin and elongated shape, which is similar to that of the control group”. In test [2], the “inhibition of cell proliferation compared to sulforaphane-treated group” value is “inhibition of cell proliferation was more significant”. The “cell migration (wound healing)” value in test [3] and in test [4] was “significantly inhibited in a dose-dependent manner” each time. Also, the “degree of fibrosis in the lung tissue” value in test [5] (200 μg/kg) and in test [5] (500 μg/kg) was “significantly reduced” in each case. Besides, the “inflammation in lung tissue (H&E)” value in test [5] is “significant reduction in inflammation regardless of concentration”. Also, in test [6], the “expression of five genes (FN, COL1A1, α-SMA, TGF-β, and CTGF) in lung tissue” value is “significant reduction”.
With `C=CCOC(=O)C(CSC(=S)NCCCC[S+](C)[O-])NC(C)=O` (stereo not drawn) [Compound 2], in test [1], the “expression levels of fibronectin and α-SMA protein” value was “significantly reducing the expression levels compared to sulforaphane”. For the same compound, the cell morphology entry in test [2] was “thin and elongated shape, which is similar to that of the control group”. Further, the “inhibition of cell proliferation compared to sulforaphane-treated group” value in test [2] is on record as “inhibition of cell proliferation was more significant”. Moreover, the “cell migration (wound healing)” value in test [3] and in test [4] was “significantly inhibited in a dose-dependent manner” in each case. Further, the “degree of fibrosis in the lung tissue” value in test [5] (100 μg/kg) and in test [5] (200 μg/kg) was “significantly reduced” in each case. The “inflammation in lung tissue (H&E)” value in test [5] is “significant reduction in inflammation at both concentrations”. In addition, the “expression of five genes (FN, COL1A1, α-SMA, TGF-β, and CTGF) in lung tissue” value in test [6] is “significant reduction”.

(Values after patent US20250313528A1, “NOVEL COMPOUND AND PHARMACEUTICAL COMPOSITION FOR PREVENTING OR TREATING PULMONARY FIBROSIS COMPRISING SAME AS ACTIVE INGREDIENT” (GIL MEDICAL CENTER, priority 2022, published 2025).)
